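Method: 48-hour compound exposure of cells in 96-well plates, five concentrations, linear interpolation of endpoints. TGI denotes the concentration required for complete inhibition of growth.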
How the values were obtained:
Assay in all cases: NCI-60 cell line screen, 48 h
SR leukemia = tested on: SR leukemia
UACC-62 melanoma = tested on: UACC-62 melanoma
CCRF-CEM leukemia = tested on: CCRF-CEM leukemia
SNB-75 CNS = tested on: SNB-75 CNS
SF-295 CNS = tested on: SF-295 CNS
HCT-116 colon = tested on: HCT-116 colon
NCI-H522 lung = tested on: NCI-H522 lung
CAKI-1 renal = tested on: CAKI-1 renal
SK-MEL-2 melanoma = tested on: SK-MEL-2 melanoma
PC-3 prostate = tested on: PC-3 prostate
HT29 colon = tested on: HT29 colon
KM12 colon = tested on: KM12 colon
U251 CNS = tested on: U251 CNS
COLO 205 colon = tested on: COLO 205 colon
MDA-MB-231 breast = tested on: MDA-MB-231 breast
MDA-MB-435 = tested on: MDA-MB-435
NCI-H226 lung = tested on: NCI-H226 lung
SK-OV-3 ovarian = tested on: SK-OV-3 ovarian
A549 NSCLC = tested on: A549 NSCLC
786-0 renal = tested on: 786-0 renal
IGROV1 ovarian = tested on: IGROV1 ovarian
OVCAR-4 ovarian = tested on: OVCAR-4 ovarian
HOP-62 NSCLC = tested on: HOP-62 NSCLC
MCF7 breast = tested on: MCF7 breast
HS 578T breast = tested on: HS 578T breast
ACHN renal = tested on: ACHN renal
HCT-15 colon = tested on: HCT-15 colon
M14 melanoma = tested on: M14 melanoma
EKVX NSCLC = tested on: EKVX NSCLC
MDA-N = tested on: MDA-N
LOX IMVI melanoma = tested on: LOX IMVI melanoma
DU-145 prostate = tested on: DU-145 prostate
HL-60(TB) leukemia = tested on: HL-60(TB) leukemia
SW-620 colon = tested on: SW-620 colon
SK-MEL-5 melanoma = tested on: SK-MEL-5 melanoma
OVCAR-8 ovarian = tested on: OVCAR-8 ovarian
NCI-H460 lung = tested on: NCI-H460 lung
BT-549 breast = tested on: BT-549 breast
T-47D breast = tested on: T-47D breast
OVCAR-3 ovarian = tested on: OVCAR-3 ovarian
SN12C renal = tested on: SN12C renal
SK-MEL-28 melanoma = tested on: SK-MEL-28 melanoma
MALME-3M melanoma = tested on: MALME-3M melanoma
UACC-257 melanoma = tested on: UACC-257 melanoma
A498 renal = tested on: A498 renal
K-562 leukemia = tested on: K-562 leukemia
RPMI-8226 leukemia = tested on: RPMI-8226 leukemia
SF-539 CNS = tested on: SF-539 CNS
SNB-19 CNS = tested on: SNB-19 CNS
NCI/ADR-RES ovarian = tested on: NCI/ADR-RES ovarian
HOP-92 NSCLC = tested on: HOP-92 NSCLC
OVCAR-5 ovarian = tested on: OVCAR-5 ovarian
RXF 393 renal = tested on: RXF 393 renal
NCI-H23 lung = tested on: NCI-H23 lung
MOLT-4 leukemia = tested on: MOLT-4 leukemia
TK-10 renal = tested on: TK-10 renal
UO-31 renal = tested on: UO-31 renal
HCC-2998 colon = tested on: HCC-2998 colon
SF-268 CNS = tested on: SF-268 CNS

Measured: TGI

Cc1cccc(Nc2cc(Cl)nc(SCC(=O)O)n2)c1C
> 100 µM: SR leukemia | UACC-62 melanoma | CCRF-CEM leukemia | SNB-75 CNS | SF-295 CNS | HCT-116 colon | NCI-H522 lung | CAKI-1 renal | SK-MEL-2 melanoma | PC-3 prostate | HT29 colon | KM12 colon | U251 CNS | COLO 205 colon | MDA-MB-231 breast | MDA-MB-435 | NCI-H226 lung | SK-OV-3 ovarian | A549 NSCLC | 786-0 renal | IGROV1 ovarian | OVCAR-4 ovarian | HOP-62 NSCLC | MCF7 breast | HS 578T breast | ACHN renal | HCT-15 colon | M14 melanoma | EKVX NSCLC | MDA-N | LOX IMVI melanoma | DU-145 prostate | HL-60(TB) leukemia | SW-620 colon | SK-MEL-5 melanoma | OVCAR-8 ovarian | NCI-H460 lung | BT-549 breast | T-47D breast | OVCAR-3 ovarian | SN12C renal | SK-MEL-28 melanoma | MALME-3M melanoma | UACC-257 melanoma | A498 renal | K-562 leukemia | RPMI-8226 leukemia | SF-539 CNS | SNB-19 CNS | NCI/ADR-RES ovarian | HOP-92 NSCLC | OVCAR-5 ovarian | RXF 393 renal | NCI-H23 lung | MOLT-4 leukemia | TK-10 renal

NCCNC(=O)CN(CC(=O)O)C1CCCCC1N(CC(=O)O)CC(=O)O (stereo not drawn)
> 100 µM: SR leukemia | UACC-62 melanoma | CCRF-CEM leukemia | UO-31 renal | SF-295 CNS | HCT-116 colon | NCI-H522 lung | CAKI-1 renal | SK-MEL-2 melanoma | PC-3 prostate | HT29 colon | KM12 colon | U251 CNS | COLO 205 colon | MDA-MB-231 breast | MDA-MB-435 | NCI-H226 lung | SK-OV-3 ovarian | A549 NSCLC | 786-0 renal | IGROV1 ovarian | OVCAR-4 ovarian | HOP-62 NSCLC | MCF7 breast | HS 578T breast | ACHN renal | HCT-15 colon | M14 melanoma | EKVX NSCLC | HCC-2998 colon | MDA-N | LOX IMVI melanoma | DU-145 prostate | HL-60(TB) leukemia | SW-620 colon | SK-MEL-5 melanoma | OVCAR-8 ovarian | NCI-H460 lung | BT-549 breast | SF-268 CNS | T-47D breast | OVCAR-3 ovarian | SN12C renal | SK-MEL-28 melanoma | MALME-3M melanoma | UACC-257 melanoma | A498 renal | K-562 leukemia | SF-539 CNS | SNB-19 CNS | NCI/ADR-RES ovarian | HOP-92 NSCLC | OVCAR-5 ovarian | NCI-H23 lung | MOLT-4 leukemia | TK-10 renal
94.9 µM: SNB-75 CNS

From PubChem BioAssay (NCI)
